Test results published in patent publication US20060204957A1, “Mta1s, a steriod hormone receptor corepressor” (priority 2002, published 2006).
One block for each molecule: values may come before it.

Columns and labels:
ERα = target: T1, ERα (Homo sapiens, UniProt P03372); details: yeast AH109 two-hybrid
T1 sequence (P03372 1-536): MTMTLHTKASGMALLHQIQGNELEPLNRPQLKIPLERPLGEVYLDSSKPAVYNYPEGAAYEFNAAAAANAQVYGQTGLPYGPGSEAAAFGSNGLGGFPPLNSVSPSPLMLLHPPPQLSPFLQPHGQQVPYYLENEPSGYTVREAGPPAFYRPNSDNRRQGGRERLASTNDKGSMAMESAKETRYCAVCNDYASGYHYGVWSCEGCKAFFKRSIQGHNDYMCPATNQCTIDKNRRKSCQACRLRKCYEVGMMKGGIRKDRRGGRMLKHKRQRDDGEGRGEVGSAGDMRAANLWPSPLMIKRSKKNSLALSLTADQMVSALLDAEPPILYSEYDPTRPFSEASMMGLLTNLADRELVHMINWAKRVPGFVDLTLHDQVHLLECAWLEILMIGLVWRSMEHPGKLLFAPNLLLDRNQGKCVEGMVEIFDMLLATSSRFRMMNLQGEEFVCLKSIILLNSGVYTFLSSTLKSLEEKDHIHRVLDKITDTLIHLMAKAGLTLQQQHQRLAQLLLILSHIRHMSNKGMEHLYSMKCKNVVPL
T1 sequence (Q13330 1-429 isoform Q13330-2 partner limits assumed): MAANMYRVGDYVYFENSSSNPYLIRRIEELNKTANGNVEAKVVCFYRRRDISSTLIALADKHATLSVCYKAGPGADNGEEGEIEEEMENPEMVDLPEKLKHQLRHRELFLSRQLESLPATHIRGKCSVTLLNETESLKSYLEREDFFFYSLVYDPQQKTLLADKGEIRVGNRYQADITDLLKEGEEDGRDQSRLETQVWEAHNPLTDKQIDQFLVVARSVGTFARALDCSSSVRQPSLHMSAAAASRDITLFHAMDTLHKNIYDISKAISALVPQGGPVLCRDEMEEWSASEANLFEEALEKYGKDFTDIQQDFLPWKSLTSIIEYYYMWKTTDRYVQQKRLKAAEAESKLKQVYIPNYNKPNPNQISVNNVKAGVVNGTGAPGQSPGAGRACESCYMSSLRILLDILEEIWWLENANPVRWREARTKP

ZR-75R cells = assay: Growth of ZR-75R cells in monolayer culture; type: cell-based, human
Excerpt: FIGS. 11A-11E. MTA1s may stimulate aggressive phenotypes in breast cancer cells. FIG. 11A illustrates an example of MTA1s overexpression inhibiting PRE-driven but not RARE-driven transcription. FIG. […] illustrates the Growth-rate of ZR/pcDNA or ZR/MTA1s cells in monolayer culture in the presence of E2 alone or with ICI 182780 (10^−9 M for 4 days). FIG. 11C show an exemplary effect of MTA1s expression on anchorage independent growth of ZR/pcDNA and ZR/MTA1s cells grown in 10% serum in the presence or absence of ICI 182780 (10^−9 M) or 4HT (10^−8 M) for 14 days. […] FIG. 11E illustrates that MTA1s may induce tumorigenesis of breast cancer cells. 5×10^6 cells were subcutaneously inoculated in the athymic nude mice (n=10), and tumor volumes at day 21 were recorded.

ER = assay: Confocal localization of ER in ZR-75R clones after estradiol; type: cell-based, human
Procedure: FIGS. 3A-3H. MTA1s typically localizes in the cytoplasm and interacts with ER. FIG. 3A illustrates an example of confocal microscopy of MCF-7 cells transiently transfected with T7-tagged MTA1 or MTA1s constructs. FIG. 3B illustrates exemplary expression of T7-MTA1s in ZR75 clones. FIG. 3C illustrates exemplary nuclear and cytoplasmic fractions that were assessed by immunoblotting with the indicated antibodies. […] FIG. 3F illustrates exemplary GST pull-down assays. […] FIG. 3H illustrates an example of expression of MTA1s and ERα in indicated cells by confocal microscopy.
The cellular localization of T7-MTA1s, and ER was determined using indirect immunofluorescence as described in Mazumdar et al., 2001, herein incorporated by reference. Cells were treated with or without anti-T7 mAb or ER Ab followed by 546-Alexa-labeled goat anti-mouse Ab or 488-Alexa.

[1] = tested on: PRE-mediated transcription; assay: PRE-mediated transcription in ZR-75R cells; type: cell-based, human; details: MTA1s-overexpressing ZR-75R cells
Procedure: Transfection was performed using a Fugene-6 kit (Roche Biochemical, New Jersey) as per the manufacturer's instructions. Cells were transiently cotransfected with a reporter construct and (β-galactosidase, and assayed for luciferase activity as described.

effect on interaction between ERα and MTA1s (ERα): failed to block
Structure (SMILES): C[C@]12CC[C@@H]3c4ccc(O)cc4C[C@@H](CCCCCCCCC[S+]([O-])CCCC(F)(F)C(F)(F)F)[C@H]3[C@@H]1CC[C@@H]2O (stereo partly drawn) [ICI 182780]

Structure (SMILES): C[C@]12CC[C@@H]3c4ccc(O)cc4CC[C@H]3[C@@H]1CC[C@@H]2O [estradiol, 17β-estradiol]
cell growth response (ZR-75R cells; ZR-75R cells expressing MTA1s): did not respond
cell growth (ZR-75R cells; ZR-75R cells expressing control vector): stimulated
redistribution of ER to the nucleus (ER; ZR-75R/vector cells): rapidly redistributed the ER to the nucleus
cells in which ER was not redistributed to the nucleus (ER; estradiol-activated ZR-75R/MTA1s cells): over 90%

Structure (SMILES): CC(=O)[C@H]1CC[C@H]2[C@@H]3CCC4=CC(=O)CC[C@]4(C)[C@H]3CC[C@]12C [progesterone]
stimulation of PRE-mediated transcription [1]: failed to stimulate
